Results: patent publication US7115622B2, “Amido ether substituted imidazoquinolines” (3M Innovative Properties Company, priority 2000, dated 2006)

Experiments:
[1] = test system: interferon (α); assay: Cytokine Induction in Human Cells: interferon induction in PBMC; assay type: cell-based; parameters: key to Lowest Effective Concentration (μM) Interferon: *: no induction was seen at any of the tested concentrations; generally the highest concentration tested was 10 or 30 μM; settings: 18 to 24 hours incubation, tested 30–0.014 μM, ELISA; for minimal effective concentration: read-out: Lowest Effective Concentration (μM) Interferon
Description: (§1) An in vitro human blood cell system is used to assess cytokine induction. Activity is based on the measurement of interferon and tumor necrosis factor (α) (IFN and TNF, respectively) secreted into culture media as described by Testerman et. al. In “Cytokine Induction by the Immunomodulators Imiquimod and S-27609”, Journal of Leukocyte Biology, 58, 365–372 (September, 1995).
(§2) Whole blood from healthy human donors is collected by venipuncture into EDTA vacutainer tubes. Peripheral blood mononuclear cells (PBMC) are separated from whole blood by density gradient centrifugation using Histopaque®-1077. Blood is diluted 1:1 with Dulbecco's Phosphate Buffered Saline (DPBS) or Hank's Balanced Salts Solution (HBSS). The PBMC layer is collected and washed twice with DPBS or HBSS and resuspended at 4×10^6 cells/mL in RPMI complete. The PBMC suspension is added to 48 well flat bottom sterile tissue culture plates (Costar, Cambridge, Mass. or Becton Dickinson Labware, Lincoln Park, N.J.) containing an equal volume of RPMI complete media containing test compound.
(§3) The compounds are solubilized in dimethyl sulfoxide (DMSO). The DMSO concentration should not exceed a final concentration of 1% for addition to the culture wells. The compounds are generally tested at concentrations ranging from 30–0.014 μM.
(§4) The solution of test compound is added at 60 μM to the first well containing RPMI complete and serial 3 fold dilutions are made in the wells. The PBMC suspension is then added to the wells in an equal volume, bringing the test compound concentrations to the desired range (30–0.014 μM). The final concentration of PBMC suspension is 2×10^6 cells/mL. The plates are covered with sterile plastic lids, mixed gently and then incubated for 18 to 24 hours at 37° C. in a 5% carbon dioxide atmosphere.
(§5) Following incubation the plates are centrifuged for 10 minutes at 1000 rpm (˜200×g) at 4° C. The cell-free culture supernatant is removed with a sterile polypropylene pipet and transferred to sterile polypropylene tubes. Samples are maintained at −30 to −70° C. until analysis. The samples are analyzed for interferon (α) by ELISA and for tumor necrosis factor (α) by ELISA or IGEN Assay
Interferon (α) and Tumor Necrosis Factor (α) Analysis by ELISA Interferon (α) concentration is determined by ELISA using a Human Multi-Species kit from PBL Biomedical Laboratories, New Brunswick, N.J. Results are expressed in pg/mL.
(§6) The table below lists the lowest concentration found to induce interferon and the lowest concentration found to induce tumor necrosis factor for each compound.

[2] = test system: tumor necrosis factor (α); assay: Cytokine Induction in Human Cells: tumor necrosis factor induction in PBMC; assay type: cell-based; parameters: key to Lowest Effective Concentration (μM) Tumor Necrosis Factor: *: no induction was seen at any of the tested concentrations; generally the highest concentration tested was 10 or 30 μM; settings: 18 to 24 hours incubation, tested 30–0.014 μM, ELISA or IGEN assay; for minimal effective concentration: read-out: Lowest Effective Concentration (μM) Tumor Necrosis Factor
Description: as §1, §2, §3, §4, §5
Tumor necrosis factor (α) (TNF) concentration is determined using ELISA kits available from Biosource International, Camarillo, Calif. Alternately, the TNF concentration can be determined by Origen® M-Series Immunoassay and read on an IGEN M-8 analyzer from IGEN International, Gaithersburg, Md. The immunoassay uses a human TNF capture and detection antibody pair from Biosource International, Camarillo, Calif. Results are expressed in pg/mL.
as §6

| SMILES | minimal effective concentration [1] [µM] | minimal effective concentration [2] [µM] | Lowest Effective Concentration (μM) Tumor Necrosis Factor [2] | Lowest Effective Concentration (μM) Interferon [1] |
| --- | --- | --- | --- | --- |
| CCCCc1nc2c(N)nc3ccccc3c2n1CCOCCNC(=O)[C@@H]1C[C@H]1c1ccccc1 [Example 29] | 1 | 10 | – | – |
| Nc1nc2ccccc2c2c1ncn2CCOCCNC(=O)COCc1ccccc1 [Example 62] | 1 | 10 | – | – |
| CCC(COCCC1CCN(C(=O)[C@@H]2C[C@H]2c2ccccc2)CC1)n1cnc2c(N)nc3ccccc3c21 (stereo partly drawn) [Example 47] | 1 | – | * | – |
| CCC(COCCC1CCN(C(=O)c2ccc3ccccc3c2)CC1)n1cnc2c(N)nc3ccccc3c21 (stereo not drawn) [Example 49] | 1 | 10 | – | – |
| CCC(COCCC1CCN(C(=O)c2ccc(OC(F)(F)F)cc2)CC1)n1cnc2c(N)nc3ccccc3c21 (stereo not drawn) [Example 51] | 10 | 10 | – | – |
| CCCCC(=O)N1CCC(CCOCC(CC)n2cnc3c(N)nc4ccccc4c32)CC1 (stereo not drawn) [Example 36] | 1 | 1 | – | – |
| CCCCc1nc2c(N)nc3ccccc3c2n1CCOCCNC(=O)Cc1ccccc1 [Example 20] | 0.1 | 10 | – | – |
| Nc1nc2ccccc2c2c1ncn2CCOCCNC(=O)c1ccccc1 [Example 53] | 10 | 10 | – | – |
| CCCCc1nc2c(N)nc3ccccc3c2n1CCOCCNC(=O)C1CCCC1 [Example 17] | 1 | 1 | – | – |
| CCCCc1nc2c(N)nc3ccccc3c2n1CCOCCNC(=O)CCc1ccccc1 [Example 25] | 1 | 10 | – | – |
| CCCCC(=O)NCCOCCn1cnc2c(N)nc3ccccc3c21 [Example 52] | 10 | 10 | – | – |
| CCCCc1nc2c(N)nc3ccccc3c2n1CCOCCNC(=O)c1ccc(OC(F)(F)F)cc1 [Example 34] | – | 10 | – | * |
| CCCCc1nc2c(N)nc3ccccc3c2n1CCOCCNC(=O)c1ccccc1 [Example 18] | 1 | 10 | – | – |
| N#Cc1ccc(C(=O)NCCOCCn2cnc3c(N)nc4ccccc4c32)cc1 [Example 57] | 10 | – | * | – |
| CCCCc1nc2c(N)nc3ccccc3c2n1CCOCCNC(=O)Cc1cccs1 [Example 22] | 0.1 | 10 | – | – |
| CCC(COCCC1CCN(C(=O)C2CCCC2)CC1)n1cnc2c(N)nc3ccccc3c21 (stereo not drawn) [Example 37] | 1 | 1 | – | – |
| CCC(COCCC1CCN(C(=O)c2ccccc2)CC1)n1cnc2c(N)nc3ccccc3c21 (stereo not drawn) [Example 38] | 1 | 10 | – | – |
| CCC(COCCC1CCN(C(=O)c2ccc(F)cc2)CC1)n1cnc2c(N)nc3ccccc3c21 (stereo not drawn) [Example 40] | 1 | 1 | – | – |
| CCCCc1nc2c(N)nc3ccccc3c2n1CCOCCNC(=O)c1cccc(OC)c1 [Example 26] | 1 | 10 | – | – |
| CCCCc1nc2c(N)nc3ccccc3c2n1CCOCCNC(=O)c1ccc(Cl)nc1 [Example 28] | 1 | 10 | – | – |
| Nc1nc2ccccc2c2c1ncn2CCOCCNC(=O)c1ccc(Cl)nc1 [Example 61] | 10 | 10 | – | – |

| SMILES | minimal effective concentration [1] [µM] | minimal effective concentration [2] [µM] | Lowest Effective Concentration (μM) Tumor Necrosis Factor [2] | Lowest Effective Concentration (μM) Interferon [1] |
| --- | --- | --- | --- | --- |
| Nc1nc2ccccc2c2c1ncn2CCOCCNC(=O)c1ccc(C(F)(F)F)cc1 [Example 65] | – | – | * | * |
| CCCCN(C(=O)CCCCOCCn1cnc2c(N)nc3ccccc3c21)c1ccccc1 [Example 13, 5-[2-(4-amino-1H-imidazo[4,5-c]quinolin-1-yl)ethoxy]-N-butyl-N-phenylpentanamide] | 10 | – | * | – |
| Nc1nc2ccccc2c2c1ncn2CCOCCNC(=O)C1CCCCC1 [Example 54] | 10 | 10 | – | – |
| CCC(COCCC1CCN(C(=O)c2cccc(C#N)c2)CC1)n1cnc2c(N)nc3ccccc3c21 (stereo not drawn) [Example 42] | 1 | 1 | – | – |
| Nc1nc2ccccc2c2c1ncn2CCOCCNC(=O)c1ccc2ccccc2c1 [Example 63] | – | 10 | – | * |
| CCCCc1nc2c(N)nc3ccccc3c2n1CCOCCNC(=O)C1CCCCC1 [Example 19] | 1 | 10 | – | – |
| CCC(COCCC1CCN(C(=O)c2cccc(C(F)(F)F)c2)CC1)n1cnc2c(N)nc3ccccc3c21 (stereo not drawn) [Example 50] | 1 | 1 | – | – |
| Nc1nc2ccccc2c2c1ncn2CCOCCNC(=O)Cc1ccccc1 [Example 55] | 1 | 10 | – | – |
| Nc1nc2ccccc2c2c1ncn2CCOCCNC(=O)Cc1cccs1 [Example 56] | 1 | 10 | – | – |
| CCCCc1nc2c(N)nc3ccccc3c2n1CCOCCNC(=O)c1ccc(OC)cc1 [Example 27] | 1 | 10 | – | – |
| CCCCc1nc2c(N)nc3ccccc3c2n1CCOCCNC(=O)c1ccc(F)cc1 [Example 21] | 1 | 10 | – | – |
| CN(C(=O)CCCCOCCn1cnc2c(N)nc3ccccc3c21)c1ccccc1 [Example 12, 5-[2-(4-amino-1H-imidazo[4,5-c]quinolin-1-yl)ethoxy]-N-methyl-N-phenylpentanamide] | 3.33 | – | * | – |
| CCC(COCCC1CCN(C(=O)c2ccc(Cl)nc2)CC1)n1cnc2c(N)nc3ccccc3c21 (stereo not drawn) [Example 45] | 0.1 | 1 | – | – |
| CCCCc1nc2c(N)nc3ccccc3c2n1CCOCCNC(=O)c1cccc(C(F)(F)F)c1 [Example 32] | – | 10 | – | * |
| Nc1nc2ccccc2c2c1ncn2CCOCCNC(=O)c1cccc(C(F)(F)F)c1 [Example 64] | 10 | – | * | – |
| CCCCc1nc2c(N)nc3ccccc3c2n1CCOCCNC(=O)COCc1ccccc1 [Example 30] | 1 | 10 | – | – |
| CCC(COCCC1CCN(C(=O)C2CC2)CC1)n1cnc2c(N)nc3ccccc3c21 (stereo not drawn) [Example 35] | 0.1 | 1 | – | – |
| CCCCC(=O)NCCOCCn1c(CCCC)nc2c(N)nc3ccccc3c21 [Example 16] | 0.1 | 1 | – | – |
| CCC(COCCC1CCN(C(=O)COCc2ccccc2)CC1)n1cnc2c(N)nc3ccccc3c21 (stereo not drawn) [Example 48] | 0.1 | 10 | – | – |
| COc1ccc(C(=O)NCCOCCn2cnc3c(N)nc4ccccc4c32)cc1 [Example 60] | 10 | 10 | – | – |
| CCCCc1nc2c(N)nc3ccccc3c2n1CCOCCNC(=O)C1CC1 [Example 15] | 0.1 | 1 | – | – |
